From patent US10610529B2, “Trabectedin-inclusive injectable pharmaceutical composition for gastrointestinal external use and a method for manufacturing the same” (priority 2016, dated 2020)

Key:
[1] = cited from earlier work
[2] = cited from earlier work; remark: listed apart in the source
[3] = Measurement of related substances and placement stability of lyophilized formulation (accelerated and long-term conditions); type: physicochemical; conditions: API, no storage item given
Procedure: The above intermediate solution was lyophilized to prepare a lyophilized trabectedin formulation. The appearance, water content, reconstitution and pH were investigated. The change of related substances after lyophilization and the placement stability under accelerated conditions (25° C. 60% RH) and long-term conditions (2-8° C.) were measured.
The above lyophilized formulations were stored under accelerated conditions (25° C. 60% RH), and the related substances and water content were measured at different time points.

[4] = High-temperature stability of lyophilized products comprising different ratios of glucose/dextran 40; type: physicochemical; conditions: API, no storage time given

In the case of `COc1cc2c(cc1O)CCN[C@]21CS[C@@H]2c3c(OC(C)=O)c(C)c4c(c3[C@H](COC1=O)N1[C@@H]2[C@H]2c3c(cc(C)c(OC)c3O)C[C@@H]([C@@H]1O)N2C)OCO4` [API, Trabectedin], the storage time ([1]; refrigerated at 5° C.) is given as ≤ 1 month, the thermal stability ([1]; room temperature (25° C.)) is given as “rapidly degrades” and the “solubility in pure water” value [2] is given as “limited”. The “ET-745 (%)” value [3] was 0.25%, the “ET-759B (%)” value [3] was 0.31% and the “Total impurities (%)” value [3] was 2.56%. The “ET-745 (%)” value [4] was 0.25%, the “ET-759B (%)” value [4] was 0.31% and the “Total impurities (%)” value [4] was 2.56%.
